Legend:
mu opioid receptor = target: T1, mu opioid receptor (Rattus norvegicus, UniProt P33535); assay: Rat Brain mu Opioid Receptor Binding Assay; conditions: rat forebrain membranes, ~0.8 nM [3H]DAMGO, 25° C., 2.5 h; read-out: μ-opioid binding (Ki)
T1 construct: from tissue; host or cells: rat forebrain homogenate (Wistar rat)
Experimental: (§1) Male, Wistar rats (150–250 g, VAF, Charles River, Kingston, N.Y.) are killed by cervical dislocation, and their brains removed and placed immediately in ice cold Tris HCl buffer (50 mM, pH 7.4). The forebrains are separated from the remainder of the brain by a coronal transection, beginning dorsally at the colliculi and passing ventrally through the midbrain-pontine junction. After dissection, the forebrains are homogenized in Tris buffer in a Teflon®-glass homogenizer. The homogenize is diluted to a concentration of 1 g of forebrain tissue per 80 mL Tris and centrifuged at 39,000×g for 10 min. The pellet is resuspended in the same volume of Tris buffer containing 5 mM MgCl2 with several brief pulses from a Polytron homogenizer. This particulate preparation is used for the mu-opioid binding assays. Following incubation with the mu selective peptide ligand ˜0.8 nM [^3H]DAMGO at 25° C. for 2.5 h in a 96-well plate with total 1 ml, the plate contents are filtered through Wallac filtermat B sheets on a Tomtec 96-well harvester. The filters are rinsed three times with 2 mL of 10 mM HEPES (pH7.4), and dried in a microwave oven 1:45 min twice. To each sample area 2×40 μl of Betaplate Scint scintillation fluid (LKB) is added and analyzed on a LKB (Wallac) 1205 BetaPlate liquid scintillation counter.
(§2) The data are used to calculate either the % inhibition compared to control binding (when only a single concentration of test compound is evaluated) or a Ki value (when a range of concentrations is tested). % inhibition is calculated as: [(total dpm-test compound dpm dpm)/(total dpm-nonspecific dpm)]*100. Kd and Ki values were calculated using GraphPad PRISM data analysis program.

delta opioid receptor = target: T2, delta opioid receptor (Rattus norvegicus, UniProt P33533); assay: Rat Brain Delta Opioid Receptor Binding Assay; conditions: rat forebrain membranes, ~4 nM [3H]DPDPE, 25° C., 2.5 h; read-out: δ-opioid binding (Ki)
T2 construct: from tissue; host or cells: rat forebrain homogenate (Wistar rat)
T2 sequence (P33533 whole entry): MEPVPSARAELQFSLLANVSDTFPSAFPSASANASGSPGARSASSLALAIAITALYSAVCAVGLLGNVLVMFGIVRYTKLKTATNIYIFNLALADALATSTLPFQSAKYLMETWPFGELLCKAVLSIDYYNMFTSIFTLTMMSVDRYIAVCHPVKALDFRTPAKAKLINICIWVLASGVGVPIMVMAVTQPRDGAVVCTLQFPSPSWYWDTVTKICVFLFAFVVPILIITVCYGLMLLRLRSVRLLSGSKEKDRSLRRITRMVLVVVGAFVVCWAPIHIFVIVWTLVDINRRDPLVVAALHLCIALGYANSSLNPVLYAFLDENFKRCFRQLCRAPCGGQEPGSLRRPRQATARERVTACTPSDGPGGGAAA
Experimental: as §1, with “delta opioid” for “mu-opioid”, “delta” for “mu”, “˜4” for “˜0.8”, “[^3H]DPDPE” for “[^3H]DAMGO”, “total volume of” for “total”
as §2

T1 sequence (P33535 whole entry): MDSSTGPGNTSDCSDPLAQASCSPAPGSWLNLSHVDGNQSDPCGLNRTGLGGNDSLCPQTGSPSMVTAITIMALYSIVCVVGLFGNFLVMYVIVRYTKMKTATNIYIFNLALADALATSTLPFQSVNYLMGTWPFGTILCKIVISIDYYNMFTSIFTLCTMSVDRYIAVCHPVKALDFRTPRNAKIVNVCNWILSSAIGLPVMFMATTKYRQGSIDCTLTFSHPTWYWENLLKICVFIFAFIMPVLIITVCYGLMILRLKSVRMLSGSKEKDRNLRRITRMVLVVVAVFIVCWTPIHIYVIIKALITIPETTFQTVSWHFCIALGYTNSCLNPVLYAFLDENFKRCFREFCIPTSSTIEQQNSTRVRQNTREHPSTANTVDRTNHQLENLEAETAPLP

Compound | Ki (mu opioid receptor) | Ki (delta opioid receptor)
Cc1cc(O)cc(C)c1C[C@H](NC=O)C(=O)N1CCCC[C@H]1c1nc(-c2ccccc2)c[nH]1 [Cmpd 37] | 13.3 nM | 5230 nM
CC(=O)Oc1cc(C)c(CC(N)C(=O)N2Cc3ccccc3CC2c2nc(-c3ccccc3)c[nH]2)c(C)c1 (stereo not drawn) [Cmpd 113] | 0.5 nM | 0.2 nM
CN1CCN(C(=O)c2ccc(C[C@H](N)C(=O)N3Cc4ccccc4C[C@H]3c3nc(-c4ccccc4)c[nH]3)cc2)CC1 [Cmpd 102] | 1240 nM | 5350 nM
N#Cc1ccc(C[C@H](N)C(=O)N2CCCC[C@H]2c2nc(-c3ccccc3)c[nH]2)cc1 [Cmpd 35] | 869 nM | 476 nM
Cc1cc(C(N)=O)cc(C)c1C[C@H](N)C(=O)N1Cc2ccccc2C[C@H]1c1nc(-c2ccccc2)c[nH]1 [Cmpd 105] | 1.44 nM | 0.06 nM
Cc1cc(O)cc(C)c1CC(N)C(=O)N1CCCCC1c1nc(-c2ccccc2)c[nH]1 (stereo not drawn) [Cmpd 34] | 0.05 nM | 1.86 nM
Cc1[nH]c([C@@H]2Cc3ccccc3CN2C(=O)[C@@H](N)Cc2ccc(C(N)=O)cc2)nc1-c1ccccc1 [Cmpd 118] | 23.1 nM | 0.73 nM
N[C@@H](Cc1ccc(O)cc1)C(=O)N1CCCC[C@@H]1c1cccc(-c2ccccc2)c1 [Cmpd 31] | 565 nM | 10000 nM
CC(=O)c1ccc(C[C@H](N)C(=O)N2CCCC[C@H]2c2nc(-c3ccccc3)c[nH]2)cc1 [Cmpd 10] | 23.6 nM | 933 nM
N[C@@H](Cc1ccc(O)cc1)C(=O)N1CCCC[C@H]1c1cccc(-c2ccccc2)c1 [Cmpd 32] | 541 nM | 5900 nM
NC(=O)c1ccc(C[C@H](N)C(=O)N2CCCC[C@H]2c2nc(-c3ccccc3)c[nH]2)cc1 [Cmpd 15] | 2.6 nM | 65.3 nM
COc1ccc(CC(N)C(=O)N2Cc3ccccc3CC2c2nc(-c3ccccc3)c(C)[nH]2)cc1 (stereo not drawn) [Cmpd 154] | 10000 nM | 10000 nM
N[C@@H](Cc1ccc(O)c([N+](=O)[O-])c1)C(=O)N1CCCC[C@H]1c1nc(-c2ccccc2)c[nH]1 [Cmpd 17] | 320 nM | 5120 nM
COc1cc(C)c(C[C@H](N)C(=O)N2CCCC[C@H]2c2nc(-c3ccccc3)c[nH]2)c(C)c1 [Cmpd 27] | 8.56 nM | 1000 nM
CS(=O)(=O)Nc1ccc(CC(N)C(=O)N2Cc3ccccc3CC2c2nc(-c3ccccc3)c[nH]2)cc1 (stereo not drawn) [Cmpd 114] | 356 nM | 342 nM
NC(=O)c1cccc(CC(N)C(=O)N2CCCCC2c2nc(-c3ccccc3)c[nH]2)c1 (stereo not drawn) [Cmpd 7] | 88.3 nM | 6070 nM
CC(C)NC(Cc1ccc(O)cc1)C(=O)N1Cc2ccccc2CC1c1nc(-c2ccccc2)c[nH]1 (stereo not drawn) [Cmpd 138] | 10000 nM | 397 nM
Cc1cc(O)cc(C)c1C[C@H](N)C(=O)N1CCCC[C@H]1c1nc(-c2ccccc2)c(C)[nH]1 [Cmpd 29] | 0.09 nM | 0.51 nM
CNC(=O)c1ccc(C[C@H](N)C(=O)N2CCCC[C@H]2c2nc(-c3ccccc3)c[nH]2)cc1 [Cmpd 21] | 0.22 nM | 33.9 nM
Cc1cc(O)cc(C)c1CC(N)C(=O)N1CCCCC1c1nc(-c2ccccc2)no1 (stereo not drawn) [Cmpd 19] | 0.14 nM | 46.3 nM
O=C([C@H](Cc1ccc(O)cc1)NCc1ccccc1)N1Cc2ccccc2C[C@@H]1c1nc(-c2ccccc2)c[nH]1 [Cmpd 134] | 329 nM | 10000 nM
CC(N)(Cc1ccc(OCc2ccccc2)cc1)C(=O)N1CCCCC1c1nc(-c2ccccc2)c[nH]1 (stereo not drawn) [Cmpd 26] | 87 nM | 628 nM
O=C(C(Cc1ccc(O)cc1)NCc1ccccc1)N1Cc2ccccc2CC1c1nc(-c2ccccc2)c[nH]1 (stereo not drawn) [Cmpd 135] | 10000 nM | 185 nM
NC(Cc1ccc(C(=O)NCCO)cc1)C(=O)N1Cc2ccccc2CC1c1nc(-c2ccccc2)c[nH]1 (stereo not drawn) [Cmpd 112] | 92.3 nM | 43.7 nM
CN(C)C(=O)c1ccc(C[C@H](N)C(=O)N2CCCC[C@H]2c2nc(-c3ccccc3)c[nH]2)cc1 [Cmpd 4] | 135 nM | 764 nM
CN[C@@H](Cc1c(C)cc(OC)cc1C)C(=O)N1CCCC[C@H]1c1nc(-c2ccccc2)c[nH]1 [Cmpd 33] | 42.9 nM | 273 nM
COc1cc(C)c(CC(N)C(=O)N2Cc3ccccc3CC2c2nc(-c3ccccc3)c[nH]2)c(C)c1 (stereo not drawn) [Cmpd 147] | 150 nM | 43 nM

Reference: patent US7041681B2, “Compounds as opioid receptor modulators” (Janssen Pharmaceutica N.V., priority 2002, dated 2006)
